From ChEMBL document CHEMBL5550165, “Novel quinoxaline analogs as telomeric G-quadruplex ligands exert antitumor effects related to enhanced immunomodulation” (Eur J Med Chem, 2024)
Calls of active or inactive are those of the source. The rule behind the calls is not given here.

How the values were obtained:
Quadruplex DNA = assay: Stabilization of G-quadruplex 5-FAM-telomeric24 DNA-TAMRA-3 (unknown origin) assessed as change in melting temperature incubated for 2 hrs by FRET assay; assay type: nucleic-acid assay
MDA-MB-231 = assay: Cytotoxicity against human MDA-MB-231 cells incubated for 24 hrs by CCK-8 reagent based spectrophotometric analysis; assay type: functional, cell-based; details: MDA-MB-231, 24 h
4T1 [1] = assay: Cytotoxicity against mouse 4T1 cells incubated for 24 hrs by CCK-8 reagent based spectrophotometric analysis; assay type: functional, cell-based; details: 4T1, 24 h
U2OS = assay: Cytotoxicity against human U2OS cells incubated for 24 hrs by CCK-8 reagent based spectrophotometric analysis; assay type: functional, cell-based
[2] = Cytotoxicity against human MCF-10A cells incubated for 24 hrs by CCK-8 reagent based spectrophotometric analysis; assay type: toxicity, cell-based
MCF7 = assay: Cytotoxicity against human MCF7 cells incubated for 24 hrs by CCK-8 reagent based spectrophotometric analysis; assay type: functional, cell-based; details: MCF7, 24 h
[3] = Toxicity in BALB/c mouse implanted with mouse 4T1 cells assessed as decrease in lung weight at 2 mg/kg,ip every other day for 14 days; assay type: organism-based; details: in vivo, 336 h, time 14 day
4T1 [4] = assay: Antitumor immunity against mouse 4T1 cells implanted in BALB/c mouse assessed as increase in proportion of CD4+ T cells in spleen at 2 mg/kg,ip every other day for 14 days by flow cytometry; assay type: functional, organism-based; details: time 14.0 day
4T1 [5] = assay: Antitumor immunity against mouse 4T1 cells implanted in BALB/c mouse assessed as increase in proportion of CD4+ T cells in tumor at 2 mg/kg,ip every other day for 14 days by immunohistochemistry staining based analysis; assay type: functional, organism-based; details: time 14.0 day
4T1 [6] = assay: Antitumor immunity against mouse 4T1 cells implanted in BALB/c mouse assessed as increase in proportion of CD8+ T cells in tumor at 2 mg/kg,ip every other day for 14 days by flow cytometry; assay type: functional, organism-based; details: time 14.0 day
4T1 [7] = assay: Antitumor immunity against mouse 4T1 cells implanted in BALB/c mouse assessed as increase in proportion of CD4+ T cells in tumor at 2 mg/kg,ip every other day for 14 days by flow cytometry; assay type: functional, organism-based; details: time 14.0 day
4T1 [8] = assay: Antitumor immunity against mouse 4T1 cells implanted in BALB/c mouse assessed as increase in proportion of CD8+ T cells in spleen at 2 mg/kg,ip every other day for 14 days by flow cytometry; assay type: functional, organism-based; details: time 14.0 day
[9] = Toxicity in BALB/c mouse implanted with mouse 4T1 cells assessed as decrease in kidney weight at 2 mg/kg,ip every other day for 14 days; assay type: organism-based; details: in vivo, 336 h, time 14 day
4T1 [10] = assay: Antitumor activity against mouse 4T1 cells implanted in BALB/c mouse assessed as damage in tumor tissue at 2 mg/kg,ip every other day for 14 days by hematoxylin and eosin staining analysis; assay type: functional, organism-based; details: time 14.0 day
[11] = Toxicity in BALB/c mouse implanted with mouse 4T1 cells assessed as decrease in spleen weight at 2 mg/kg,ip every other day for 14 days; assay type: organism-based; details: in vivo, 336 h, time 14 day
4T1 [12] = assay: Antitumor immunity against mouse 4T1 cells implanted in BALB/c mouse assessed as increase in serum TNF-alpha level at 2 mg/kg,ip every other day for 14 days by ELISA; assay type: functional, organism-based; details: time 14.0 day
[13] = Toxicity in BALB/c mouse implanted with mouse 4T1 cells assessed as decrease in heart weight at 2 mg/kg,ip every other day for 14 days; assay type: organism-based; details: in vivo, 336 h, time 14 day
4T1 [14] = assay: Antitumor immunity against mouse 4T1 cells implanted in BALB/c mouse assessed as increase in serum IL-6 level at 2 mg/kg,ip every other day for 14 days by ELISA; assay type: functional, organism-based; details: time 14.0 day
[15] = Toxicity in BALB/c mouse implanted with mouse 4T1 cells assessed as decrease in liver weight at 2 mg/kg,ip every other day for 14 days; assay type: organism-based; details: in vivo, 336 h, time 14 day
BMDC = assay: Induction of immunogenic cell death in BALB/c mouse BMDC cells co-cultured with mouse 4T1 cells assessed as increase in CD11c+ CD80+ CD86 cells maturation at 5 uM incubated for 24 hrs by flow cytometry (reference value: 69.4 %); assay type: functional
[16] = Toxicity in BALB/c mouse implanted with mouse 4T1 cells assessed as decrease in body weight at 2 mg/kg,ip every other day for 14 days; assay type: organism-based; details: in vivo, 336 h, time 14 day
4T1 [17] = assay: Antitumor immunity against mouse 4T1 cells implanted in BALB/c mouse assessed as increase in proportion of CD8+ T cells in tumor at 2 mg/kg,ip every other day for 14 days by immunohistochemistry staining based analysis; assay type: functional, organism-based; details: time 14.0 day
4T1 [18] = assay: Antitumor activity against mouse 4T1 cells implanted in BALB/c mouse assessed as reduction in tumor weight at 2 mg/kg,ip every other day for 14 days; assay type: functional, organism-based; details: time 14.0 day

ΔTm (Quadruplex DNA) | Structure (SMILES) | IC50 (MDA-MB-231) | IC50 (4T1 [1]) | IC50 (U2OS) | IC50 at 24 h [2] | IC50 (MCF7) | other results
5.7 °C | CN(C)CCN1CCN(c2ccc(-c3nc4cc5ccccc5cc4nc3-c3ccc(N4CCN(CCN(C)C)CC4)cc3)cc2)CC1 | 5.2 µM | 4 µM | 13.3 µM | 3.7 µM | 8.4 µM | 
4.1 °C | COc1ccc2nc(-c3ccc(N4CCN(CCO)CC4)cc3)c(-c3ccc(N4CCN(CCO)CC4)cc3)nc2c1 | 1.3 µM | 22.1 µM | 8 µM | 6.7 µM | 15.9 µM | 
1.9 °C | OCCN1CCN(c2ccc(-c3nc4cc5ccccc5cc4nc3-c3ccc(N4CCN(CCO)CC4)cc3)cc2)CC1 | 2.5 µM | 4.9 µM | 6.6 µM | 2.8 µM | 18.4 µM | 
6.6 °C | CN(C)CCN1CCN(c2ccc(-c3nc4ccc(C(F)(F)F)cc4nc3-c3ccc(N4CCN(CCN(C)C)CC4)cc3)cc2)CC1 | 2 µM | 1.7 µM | 3.5 µM | 1.5 µM | 4.3 µM | 
8.3 °C | CN(C)CCN1CCN(c2ccc(-c3nc4ccc(F)cc4nc3-c3ccc(N4CCN(CCN(C)C)CC4)cc3)cc2)CC1 | 2.9 µM | 2.3 µM | 3.6 µM | 2.7 µM | 6.1 µM | 
5.6 °C | COc1ccc2nc(-c3ccc(N4CCN(CCN(C)C)CC4)cc3)c(-c3ccc(N4CCN(CCN(C)C)CC4)cc3)nc2c1 | 2.3 µM | 5.3 µM | 6.9 µM | 3.4 µM | 9.5 µM | 

The remaining lines, values behind:

Structure (SMILES) | ΔTm (Quadruplex DNA) | IC50 (MDA-MB-231) | IC50 (4T1 [1]) | IC50 (U2OS) | IC50 at 24 h [2] | IC50 (MCF7) | other results
COc1ccc2nc(-c3ccc(N(C)CCN(C)C)cc3)c(-c3ccc(N(C)CCN(C)C)cc3)nc2c1 | 6.6 °C | 6.2 µM | 9.4 µM | 8.8 µM | 13.7 µM | 5.8 µM | 
OCCN1CCN(c2ccc(-c3nc4ccc(F)cc4nc3-c3ccc(N4CCN(CCO)CC4)cc3)cc2)CC1 | 3.2 °C | 1.8 µM | 12.9 µM | 4.5 µM | 6.3 µM | 10.5 µM | 
CN(C)CCN(C)c1ccc(-c2nc3cc4ccccc4cc3nc2-c2ccc(N(C)CCN(C)C)cc2)cc1 | 7.9 °C | 1.4 µM | 2.9 µM | 1.5 µM | 1.3 µM | 1.9 µM | 
CN(C)CCN(C)c1ccc(-c2nc3ccc(F)cc3nc2-c2ccc(N(C)CCN(C)C)cc2)cc1 | 6 °C | 3.1 µM | 5.6 µM | 3.1 µM | 8.8 µM | 4.2 µM | 
COc1cccc2c1C(=O)c1c(O)c3c(c(O)c1C2=O)C[C@@](O)(C(=O)CO)C[C@@H]3O[C@H]1C[C@H](N)[C@H](O)[C@H](C)O1 [DOXORUBICIN] |  |  |  |  |  |  | Activity [3]: Toxic; Activity (4T1 [4]): Active; Activity (4T1 [5]): Active; Activity (4T1 [6]): Active; Activity (4T1 [7]): Active; Activity (4T1 [8]): Active; Activity [9]: Toxic; Activity (4T1 [10]): Active; Activity [11]: Toxic; Activity (4T1 [12]): Active; Activity [13]: Toxic; Activity (4T1 [14]): Active; Activity [15]: Toxic; Activity (BMDC): 81.5%; Activity [16]: Toxic; Activity (4T1 [17]): Active; Activity (4T1 [18]): Active
COc1ccc2nc(-c3ccc(N(C)CCO)cc3)c(-c3ccc(N(C)CCO)cc3)nc2c1 | 0.1 °C | > 40 µM | > 40 µM | > 40 µM | 24.1 µM | > 40 µM | 
CN(CCO)c1ccc(-c2nc3ccc(C(F)(F)F)cc3nc2-c2ccc(N(C)CCO)cc2)cc1 | 0.5 °C | > 40 µM | > 40 µM | 19.3 µM | 20.5 µM | > 40 µM | 
CN(CCO)c1ccc(-c2nc3cc4ccccc4cc3nc2-c2ccc(N(C)CCO)cc2)cc1 | 0.9 °C | 20.9 µM | 36.4 µM | > 40 µM | 11.1 µM | > 40 µM | 
OCCN1CCN(c2ccc(-c3nc4ccc(C(F)(F)F)cc4nc3-c3ccc(N4CCN(CCO)CC4)cc3)cc2)CC1 | 1.5 °C | 2 µM | 4.3 µM | 3.7 µM | 4.1 µM | 6.3 µM | 
CN(CCO)c1ccc(-c2nc3ccc(F)cc3nc2-c2ccc(N(C)CCO)cc2)cc1 | 0.4 °C | 33.2 µM | 31.6 µM | > 40 µM | 18 µM | > 40 µM | 
